Values quoted from earlier work in patent US20060034774A1, “Galactopyrannosyltriaminetetracarboxylate as ligands for bioactivated paramagnetic metal complexes” (Kaohsiung Medical University, priority 2004, published 2006).
Like-named read-outs stand apart in the source and are kept apart here.

Molecular target: β-galactosidase (β-gal) (Escherichia coli, UniProt P00722)
Sequence (P00722 2-1024): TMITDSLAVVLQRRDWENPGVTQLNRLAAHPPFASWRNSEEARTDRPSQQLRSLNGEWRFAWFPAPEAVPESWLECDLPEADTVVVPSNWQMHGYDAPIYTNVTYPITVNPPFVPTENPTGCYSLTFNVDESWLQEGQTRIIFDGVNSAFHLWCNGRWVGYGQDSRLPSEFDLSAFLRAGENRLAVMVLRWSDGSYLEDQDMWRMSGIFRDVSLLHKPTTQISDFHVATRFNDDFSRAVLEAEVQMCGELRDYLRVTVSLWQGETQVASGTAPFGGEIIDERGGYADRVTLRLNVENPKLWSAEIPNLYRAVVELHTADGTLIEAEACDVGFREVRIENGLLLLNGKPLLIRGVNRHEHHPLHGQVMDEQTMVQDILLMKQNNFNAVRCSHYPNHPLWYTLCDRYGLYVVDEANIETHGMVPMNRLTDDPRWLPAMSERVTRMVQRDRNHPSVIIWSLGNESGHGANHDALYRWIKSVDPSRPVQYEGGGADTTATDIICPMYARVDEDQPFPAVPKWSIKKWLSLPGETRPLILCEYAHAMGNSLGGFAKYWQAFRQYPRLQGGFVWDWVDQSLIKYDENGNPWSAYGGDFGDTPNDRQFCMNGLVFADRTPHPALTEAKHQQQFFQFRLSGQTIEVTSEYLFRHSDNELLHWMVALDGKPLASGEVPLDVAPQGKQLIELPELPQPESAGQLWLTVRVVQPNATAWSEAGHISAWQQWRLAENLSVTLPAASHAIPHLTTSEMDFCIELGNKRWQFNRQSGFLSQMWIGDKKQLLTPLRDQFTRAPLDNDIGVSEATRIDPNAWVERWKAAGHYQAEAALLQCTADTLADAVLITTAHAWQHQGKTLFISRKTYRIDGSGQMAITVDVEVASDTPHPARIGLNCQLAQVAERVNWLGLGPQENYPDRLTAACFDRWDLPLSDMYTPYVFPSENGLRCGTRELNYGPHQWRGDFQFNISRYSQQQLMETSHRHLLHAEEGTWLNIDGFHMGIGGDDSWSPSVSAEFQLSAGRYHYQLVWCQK

Structure (SMILES): O=C(O)CN1CCN(CCO[C@@H]2O[C@H](CO)[C@H](O)[C@H](O)[C@H]2O)CCN(CC(=O)O)CCN(CC(=O)O)CC1 [Egad, 4,7,10-tri(aceticacid)-1-(2-β-galactopyranosylethoxy)-1,4,7,10-tetraagacyclo dodecane]
- number of inner space water molecules (after hydrolysis by β-galactosidase (β-gal)): 1.2
- number of inner space water molecules (before β-galactosidase): 0.7
